Values joined by “and” are separate entries in the source; they are usually repeats but may differ in a detail not shown here. Identical values can stand only once.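 Exposure lasted 48 hours, with cells grown in 96-well plates and compounds tested at five concentrations. GI50 = concentration required for 50% inhibition of growth. TGI marks complete inhibition of growth.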
Each compound was assayed on SK-MEL-28 melanoma (assay: growth of human tumour cells (NCI), 48 h).

| Structure (SMILES) | GI50 | TGI |
| --- | --- | --- |
| COc1ccc(/C=C/c2n(Cc3ccc4ccccc4c3)c3ccccc3[n+]2Cc2ccc3ccccc3c2)cc1 | 0.818 µM | 2.08 µM |

The compounds below were run on SNB-75 CNS (assay: growth of human tumour cells (NCI), 48 h).

| Structure (SMILES) | GI50 | TGI |
| --- | --- | --- |
| COc1ccc(/C=C/c2n(Cc3ccc4ccccc4c3)c3ccccc3[n+]2Cc2ccc3ccccc3c2)cc1 | 0.15 µM | 1.48 µM |

What follows are compounds tested on OVCAR-5 ovarian (assay: growth of human tumour cells (NCI), 48 h).

| Structure (SMILES) | GI50 | TGI |
| --- | --- | --- |
| COc1ccc(/C=C/c2n(Cc3ccc4ccccc4c3)c3ccccc3[n+]2Cc2ccc3ccccc3c2)cc1 | 0.828 µM | 2.11 µM |

Each compound was assayed on NCI/ADR-RES ovarian (assay: growth of human tumour cells (NCI), 48 h).

| Structure (SMILES) | GI50 | TGI |
| --- | --- | --- |
| COc1ccc(/C=C/c2n(Cc3ccc4ccccc4c3)c3ccccc3[n+]2Cc2ccc3ccccc3c2)cc1 | 2.11 µM | 5.43 µM |

These compounds were tested on HS 578T breast (assay: growth of human tumour cells (NCI), 48 h).

| Structure (SMILES) | GI50 | TGI |
| --- | --- | --- |
| COc1ccc(/C=C/c2n(Cc3ccc4ccccc4c3)c3ccccc3[n+]2Cc2ccc3ccccc3c2)cc1 | 0.583 µM | 2.85 µM |

These compounds were tested on MDA-MB-468 breast (assay: growth of human tumour cells (NCI), 48 h).

| Structure (SMILES) | GI50 | TGI |
| --- | --- | --- |
| CNc1ccc(-c2cc(=O)oc3ccc(Cl)cc23)cc1 | 0.219 µM and 0.0841 µM | 0.926 µM and 0.877 µM |
| C/C(=C\CCc1ccoc1)CC/C=C(\C)CCCN1CCC(CO)CC1 | 1.7 µM | 4.45 µM |
| N#Cc1cccc(NC(=O)c2oc3ccccc3c2-c2cnn(-c3ccccc3)c2)c1 | 406 µM | > 500 µM |
| COc1ccc(C2=C(c3cc(OC)c(OC)c(OC)c3)C(=O)CC2)cc1 | 0.0673 µM | – |
| COc1c(CNC(=O)CCl)cc2[nH]c(C)cc2c1CNC(=O)CCl | 5.94 µM | 25.9 µM |
| CCO/C=N/C1=C(C#N)C(c2ccc(F)cc2)c2sc3c(CC)cccc3c2O1 (configuration not stated) | 0.421 µM | 16 µM |
| CC[C@H](C)n1cc(C)c2c(C(=O)NCc3c(C)cc(C)[nH]c3=O)cc(-c3ccc(N4CCNCC4)nc3)cc21 | 2.15 µM and 5.09 µM | 7.63 µM and 18.7 µM |
| OC(COc1cccc2ccccc12)CN1CCN(c2ccccc2)CC1 (configuration not stated) | 16.6 µM | 31.1 µM |
| C=CCN(/C=C1\C(=O)O[C@H](COC)[C@@]2(C)C1=C(O)C(=O)C1=C2[C@H](OC(C)=O)C[C@]2(C)C(=O)CC[C@@H]12)CC=C | 0.0778 µM | 0.649 µM |
| c1ccc(-c2nn(-c3ccccc3)[n+](-c3cccc4ccccc34)n2)cc1 | 0.265 µM | 1.77 µM |
| CC(=O)OC[C@]12CC[C@@H]([C@@H](C)C(N)=O)[C@@H]1[C@H]1CC[C@@H]3[C@@]4(C)CC[C@H](OC(C)=O)C(C)(C)[C@@H]4CC[C@@]3(C)[C@]1(C)CC2 | 3.96 µM | 15.6 µM |
| COc1cc([C@@H]2c3cc4c(cc3[C@@H](O[C@@H]3O[C@@H]5CO[C@@H](c6cccs6)O[C@H]5[C@H](O)[C@H]3O)[C@H]3COC(=O)[C@H]23)OCO4)cc(OC)c1O | 0.186 µM | 0.537 µM |
| COC(=O)Nc1nc2cc3c(cc2s1)OCCO3 | 29.2 µM | > 50 µM |
| CNC(C)C(=O)N[C@H](C(=O)N1CCC[C@@H]1CN(CCc1ccccc1)C(=O)C(F)(F)F)[C@H](C)OCC#CC#CCO[C@H](C)[C@H](NC(=O)[C@H](C)NC)C(=O)N1CCC[C@H]1CN(CCc1ccccc1)C(=O)C(F)(F)F (some centres not stated) | < 0.01 µM | 0.0221 µM |
| C#COc1cccc(Nc2ncnc3ncc(NC(=O)CCl)cc23)c1 | > 35.4 µM | > 62.5 µM |
| COc1ccc(-c2nn(-c3cccc(NC(=O)Nc4cc(C(F)(F)F)cc(C(F)(F)F)c4)c3)cc2-c2ccncc2)cc1Cl | 0.641 µM | 2.89 µM |
| Clc1ccc(-c2nn3ncccc3c2-c2ccnc(Nc3ccccc3)n2)cc1 | 1.19 µM | 9.63 µM |
| CC[C@@H](C(=O)[C@@H](C)[C@@H](O)[C@H](C)[C@@H]1O[C@@H]([C@@H](CC)C(=O)O)CC[C@@H]1C)[C@H]1OC2(C=C[C@@H](O)[C@]3(CC[C@@](C)([C@H]4CC[C@](O)(CC)[C@H](C)O4)O3)O2)[C@H](C)C[C@@H]1C (some centres not stated) | 0.15 µM | 1.95 µM |
| O=C1/C(=C\c2coc3ccccc3c2=O)c2ccccc2N1c1c(Cl)cccc1Cl | 2.44 µM | 13.1 µM |
| CC1=C(/C=C/C(C)=C/C=C/C(C)=C/C(=O)Nc2ccc(O)cc2)C(C)(C)CCC1 | 2.22 µM | 8.41 µM |
| N#Cc1c(NC(=O)CN2CCOCC2)sc2c1CCCC2 | > 21.7 µM | > 25 µM |
| Cn1cc(C[C@@H](N)C(=O)O)c2ccccc21 | > 100 µM | > 100 µM |
| N#Cc1c(-c2ccc(Cl)cc2)nc(SCc2ccc(F)cc2)nc1N1CCNCC1 | 1.47 µM | 2.88 µM |
| COc1ccc(/C=C\c2cc(OC)c(OC)c(OC)c2)cc1OC(=O)c1cccc(Cn2cc(CCOC(=O)c3cccc(Cn4nnc5c4C(=O)c4ccccc4C5=O)c3)nn2)c1 | < 0.0138 µM | – |
| CN1CCN(Cc2ccc(NC(=O)c3ccc(C#N)c(C#Cc4cnc(N)c5ncccc45)c3)cc2C(F)(F)F)CC1 | 16.9 µM | 63.5 µM |

| Structure (SMILES) | GI50 | TGI |
| --- | --- | --- |
| COc1cc([C@@H]2c3cc4c(cc3[C@H](O)[C@H]3COC(=O)[C@H]23)OCO4)cc(OC)c1OC | < 0.01 µM | < 0.01 µM |
| COC(=O)[C@H](CC(C)C)NC(=O)NC(=O)NC(=O)CI | 1.97 µM | 4.24 µM |
| CC1=C([Se]CC(OC(=O)[C@@H](CO)NC(=O)OC(C)(C)C)C(=O)NC(C)(C)C)C(=O)c2ccccc2C1=O (some centres not stated) | 0.759 µM | 2.29 µM |
| Oc1cc(O)c2c(=S)cc(-c3ccc(Cl)cc3)oc2c1 | 0.26 µM | 3.1 µM |
| COc1ccc(Cc2cnc(NC(=O)c3sc4ccccc4c3Cl)s2)cc1 | 0.416 µM | > 100 µM |
| COC(=O)[C@@]1(C)CC[C@]2(C)CC[C@]3(C)C4=CC=C5C(=CC(=O)C(O)=C5C)[C@]4(C)CC[C@@]3(C)[C@@H]2C1 | 0.165 µM | 0.359 µM |
| C#CCNC(=O)CC[C@]1(C)[C@H]2CC[C@@H]3[C@@H]([C@@](C)(O)CCC=C(C)C)CC[C@@]3(C)[C@]2(C)CC[C@H]1C(=C)C | 33.6 µM | > 100 µM |
| O=C1/C(=C/c2ccccc2)CCC/C1=C\c1ccccc1 | 3.12 µM | 19.4 µM |
| Nc1ccccc1NC(=O)c1ccc(CN2CCC/C(=C\c3cccc(Cl)c3)C2=O)cc1 | 0.0636 µM | 5.9 µM |
| N#CN1CCC[C@H]1C(=O)N1CCc2c(-c3[nH]nc4ncccc34)cccc21 | < 0.01 µM | < 0.01 µM |
| N#Cc1c(-c2ccccc2)cc(-c2ccccc2)n(CCCCC(=O)NO)c1=O | 2.51 µM | 11.8 µM |
| COc1cccc(C2C3=C(COC3=O)N(CCO)c3cc4c(cc32)OCCO4)c1 (configuration not stated) | 0.0684 µM | 1.27 µM |
| CCCN(CCC)CCCNC(=O)c1cc2c(-c3ccc(OC)c(OC)c3)nn(C)c2s1 | 14 µM | 34.5 µM |
| CN(C)CCCNc1nccc(-c2c(-c3ccc(F)cc3)nn3cc(C(F)(F)F)ccc23)n1 | 3.03 µM | 7.35 µM |
| CCN(CC)CCCC(Nc1c2ccc(Cl)cc2nc2ccc(OC)cc12)c1ccc(F)cc1 (configuration not stated) | 1.65 µM | 3.22 µM |
| C=C1CCC2C3(C)COC(c4ccc(SC)cc4)OC3CCC2(C)C1C/C=C1/C(=O)OCC1O (configuration not stated) | 5.34 µM | 18.3 µM |
| Cc1cc(-c2nc(-c3ccc(OC(F)(F)F)cc3)no2)nn1Cc1ccnc(N2CCN(C3CC3)CC2)c1 | < 0.01 µM | 5.68 µM |
| CCOc1ccc(/C=C/[N+](=O)[O-])cc1 | 1.97 µM | 3.97 µM |
| Cc1nc(/N=C(\N)NC(=O)Nc2ccccc2Cl)sc1C | 0.459 µM | 4.67 µM |
| COc1cc(C2CC(c3cc(C)ccc3C)=NN2c2ccc(S(=O)(=O)NC(=O)NCc3ccccc3)cc2)cc(OC)c1OC (configuration not stated) | 2.32 µM | 5.53 µM |
| COc1ccc(/C=C/c2cc(N3CCOCC3)c3cc(F)c(F)cc3n2)cc1OC | 0.277 µM | 1.64 µM |
| COc1ccc(-c2cc(/C=C3\C(=O)Nc4ccc(OC)cc43)[nH]n2)cc1 | 3.71 µM | > 100 µM |
| CC[CH2][Sn]([Cl])([Cl])[CH2]CC | 1.92 µM | 6.96 µM |
| CCCCN(CCCC)CCCN=c1nc2c(c(N)n1-c1ccccc1)c(=S)n(-c1ccccc1)c(=S)n2-c1ccccc1 | 0.218 µM | 0.518 µM |

The compounds below were run on ACHN renal (assay: growth of human tumour cells (NCI), 48 h).

| Structure (SMILES) | GI50 | TGI |
| --- | --- | --- |
| COc1ccc(/C=C/c2n(Cc3ccc4ccccc4c3)c3ccccc3[n+]2Cc2ccc3ccccc3c2)cc1 | 1.12 µM | 2.32 µM |

The compounds below were run on HL-60(TB) leukemia (assay: growth of human tumour cells (NCI), 48 h).

| Structure (SMILES) | GI50 | TGI |
| --- | --- | --- |
| COc1ccc(/C=C/c2n(Cc3ccc4ccccc4c3)c3ccccc3[n+]2Cc2ccc3ccccc3c2)cc1 | 0.268 µM | 0.993 µM |

The compounds below were run on RXF 393 renal (assay: growth of human tumour cells (NCI), 48 h).

| Structure (SMILES) | GI50 | TGI |
| --- | --- | --- |
| COc1ccc(/C=C/c2n(Cc3ccc4ccccc4c3)c3ccccc3[n+]2Cc2ccc3ccccc3c2)cc1 | 0.377 µM | 1.59 µM |

Source: PubChem BioAssay (NCI)
